For data set [1], the system named is adult purebred Beagle dogs. Briefly: Apomorphine antagonism in dogs. The data set is classed as in vivo. The source says:
Especially when testing esters of the compounds of Formula I it has been found advantageous to use the wellrecognized test which is based upon the fact that strong neuroleptics antagonize apomorphine induced vomiting in dogs. The test is described by P. A. J. Janssen, C. J. E. Niemegeers and K. H. L. Schellehaus: "Is it possible to predict the clinical effects of neuroleptic drugs (major tranquillizers) from animal data" ?, Part II, Arzneimittel Forschung, 15, 1196-1206, 1965. In order to evaluate esters of the compounds of Formula I a modified method is described by M. Nymark et al. in Acta pharmacol. et toxicol. 1973, 33, 363-376. The test may be described shortly as follows:
As animals were used adult purebred Beagle dogs of either sex. The threshold-dose of apomorphine hydrochloride for the induction of vomiting in the dogs has been determined to be 0.025 mg/kg intravenously. After this dose vomiting occurs within a few minutes of the injection. Four dogs were used for each dose level of the drug, which was injected subcutaneously at the back of the neck. At different times after the drug administration the dogs were then challenged with apomorphine according to an "up-and-down" schedule using the dose-range 0.025- 0.400 mg/kg intravenously geometrically spaced. […] In this way it was possible to estimate at which level of apomorphine the dogs were protected at a given time. The dogs were fed half an hour before testing to ensure an easy vomiting.

The test system of a further data set is male Wistar rats. The data set can be described thus: Catalepsy-inducing effect in rats. The following applies: catalepsy (rats) / methylphenidate antagonism peak effect (mice). The data set is classed as in vivo. As to the method:
(§1) Reference is made to L. Juluo: "On the Interaction between Neuroleptics and Antiparkinson Drugs." Modern Problems of Pharmacopsychiatry, vol. 5, pg, 50-54. The test may be described as follows:
(§2) Five animals are used at each dose level.
(§3) The test compound is injected subcutaneously (s.c.)
(§4) Injection volume is 5 ml of the vehicle/kg b.w.
(§5) Except when otherwise stated saline is used as vehicle.
(§6) The animals are placed in the middle of a vertical wire netting (50 cm/49 cm) 60, 120, 180, 240, 300 and 360 minutes after injection of the test compound.
(§7) The animals are considered cataleptic when they remain immobile during a period of 15 seconds. This cataleptic reaction is designated: + (plus). Untreated animals climb normally up and down the wire netting. The absence of catalepsy is designated: - (minus). The results are expressed as fractions as follows: 0/5, 1/5, 2/5, 3/5, 4/5 and 5/5 in which 0, 1, 2, 3,4 and 5 represent the number of cataleptic animals out of five animals tested.

Data set [2] is described as follows: Catalepsy-inducing effect in rats. The following applies: rat, in vivo, sc. Type of data set: in vivo, male Wistar rats. As to the method: as §1, §2, §3, §4, §5, §6, §7
Another data set relates to NMRI male mice. The data set can be described thus: Methylphenidate antagonism in mice. Type of data set: in vivo. The following applies: mice, i.p.; for ED50: Mus musculus, ip. As to the method:
1. As animals were used NMRI male mice weighing 18-25 grams.
3 × 2 or 5 × 2 mice are used for each dose level. Thirty minutes, 1 hour, 2 hours, 3 hours etc. after i.p. injection of test substance, methylphenidate, 60 mg/kg, is injected s.c. At each time interval separate groups of mice were used. After administration of methylphenidate the mice are placed in the observation cages, 2 in each cage, where they remain for 1 hour. The cages are placed on corrugated paper, the corrugations facing upwards. It is examined whether or not the mice have been biting the corrugated paper. […] The peak effect was determined for the test substances and also for a number of known neuroleptics.

The conditions of data set [3]: pure α-isomers of known neuroleptics; cited from earlier work.
A further data set relates to rats. Briefly: Antagonism of amphetamine-induced stereotyped behaviour in rats. The data set is classed as in vivo. The following applies: for ED50: Rattus norvegicus. As to the method: The modification used by us was as follows:
The animals were then placed in individual cages. […] The absence of stereotypy was interpreted as a drug effect. ED50 values for protection against stereotypy were determined. All compounds were tested at a minimum of three dose levels using 10 rats per dose, and the observer was kept unaware of the identity of the groups until after the experiment.

Data set [4] deals with adult purebred Beagle dogs. The data set can be described thus: Apomorphine antagonism in dogs. The data set is classed as in vivo. The following applies: ordinary doses, prolonged treatment.
Data set [5] is described as follows: Pharmacological tests (test not specified). The following applies: in vivo; listed as Example 12 alpha-isomer.
Where [6] appears, read: 24 h after injection, read-out: Methylphenidate antagonism ED50, 24 h.
The mark [7] stands for this setting: peak effect, methylphenidate 60 mg/kg s.c., read-out: Methylphenidate antagonism, peak effect ED50.
Where [8] appears, read: rats, s.c., dose producing catalepsy in 50% of the animals, read-out: Catalepsy ED50 max.

Structures can show the parent of a compound that is named as a salt. Where two headings read alike, the source gives them in different places.

With `CCCCCCCCCC(=O)OCCN1CCN(CC/C=C2/c3ccccc3Sc3ccc(C(F)(F)F)cc32)CC1` [reference compound], in data set [1] (2 mg/kg s.c.), the “day after the injection on which the effect had disappeared” value came to 11 days and the “degree of protection against apomorphine” value came out at 3 × threshold dose.

`CN1CCN(CC/C=C2/c3ccccc3Sc3ccc(S(=O)(=O)N(C)C)cc32)CC1` [Thiothixene, reference compound]: the “Ratio Cat./Meth (catalepsy/methylphenidate antagonism)” value with male Wistar rats is 0.14. For the same compound, the median effective dose (ED50) in data set [2] was 0.06 mg/kg; with NMRI male mice (setting [6]), more than 40 mg/kg; with NMRI male mice (setting [7]) it was 0.4 mg/kg. Also, the “activity of the α-isomer relative to the β-isomer (in words)” value in data set [3] is “most active isomers”.

As to `CCCCCCCCCCCCCCCC(=O)OCCC1CCN(CCC=C2c3ccc(F)cc3Sc3ccc(C(F)(F)F)cc32)CC1` [palmitic acid ester of Lu 12-331, palmitic acid ester of the alpha-isomer of 2-trifluoromethyl-6-fluoro-9-(3-(4-(2-hydroxyethyl)-1-piperidyl)propylidene)-thiaxanthene], in the data set with rats (2-5 mg/kg s.c.), the sedation result is “pronounced sedation lasting for several days”.

Regarding `OCCN1CCN(CC/C=C2/c3ccccc3Sc3ccc(C(F)(F)F)cc32)CC1` [α-Flupenthixol, reference compound], in the data set on male Wistar rats, the “Ratio Cat./Meth (catalepsy/methylphenidate antagonism)” value was 1.74. For the same compound, the ED50 in data set [2] was 0.12 mg/kg; in the data set on NMRI male mice (setting [6]), 17 mg/kg; with NMRI male mice (setting [7]) it was 0.07 mg/kg. The “duration of peak effect” value with NMRI male mice turned out to be 6 h. Moreover, in data set [3], the “activity of the α-isomer relative to the β-isomer (in words)” value was “most active isomers”.

As to `OCCN1CCN(CC/C=C2/c3ccccc3Sc3ccc(Cl)cc32)CC1` [α-Clopenthixol, reference compound], in the data set on male Wistar rats, the “Ratio Cat./Meth (catalepsy/methylphenidate antagonism)” value was 0.7. The figures for the ED50 (in data set [2]; in the data set on NMRI male mice (setting [6]); with NMRI male mice (setting [7])) were 0.45 mg/kg, more than 40 mg/kg and 0.7 mg/kg, respectively. In addition, the “duration of peak effect” value in the data set on NMRI male mice came to 5 h. For the same compound, in data set [3], the “activity of the α-isomer relative to the β-isomer (in words)” value is reported as “most active isomers”.

Take `CN1CCc2cccc3c2[C@H]1Cc1ccc(O)c(O)c1-3` [apomorphine hydrochloride, reference compound]: the minimal effective dose in data set [1] (Canis lupus familiaris, iv, intravenously, read-out: threshold-dose for the induction of vomiting) worked out at 0.025 mg/kg.

With `CCCCCCCCCCCCCCCCCCCCCC(=O)OCCC1CCN(CCC=C2c3ccc(F)cc3Sc3ccc(C(F)(F)F)cc32)CC1` [behenic acid ester of Lu 12-331, behenic acid ester of the alpha-isomer of 2-trifluoromethyl-6-fluoro-9-(3-(4-(2-hydroxyethyl)-1-piperidyl)propylidene)-thiaxanthene], the “sedation compared with the palmitic acid ester” value in data set [1] (1 mg/kg subcutaneously as Lu 12-331, first week) is “less sedation in the first week”. For the same compound, in data set [1] (1.6 mg/kg s.c. of ester), the “duration of maximal protection” value worked out at 15 days and the “time after which the effect had disappeared” value came out at 26 days. For the same compound, the “maximal protection against apomorphine” value in data set [1] (1.6 mg/kg s.c. of ester ~ 1 mg/kg of Lu 12-331) is 16 × threshold dose of apomorphine. The “protection against apomorphine 21 days after the injection” value in data set [1] (1.6 mg/kg s.c. of ester, 21 days) is reported as ~ 12 × threshold dose. Also, the sedation result in data set [1] (1.6 mg/kg s.c. of ester, at any time) is on record as “No sedation”. In addition, in the data set on rats (5 mg/kg s.c.), the “duration of protection against amphetamine-induced stereotypies” value was determined as 21 days and the sedation entry is “hardly any sedation”.

Consider `OCCC1CCN(CCC=C2c3ccc(F)cc3Sc3ccc(C(F)(F)F)cc32)CC1` [Substance 13, alpha-isomer of 2-trifluoromethyl-6-fluoro-9-(3-(4-(2-hydroxyethyl)-1-piperidyl)propylidene)-thiaxanthene], for which, in data set [4], the “feed intake and survival” value is on record as “did not take feed to a sufficient degree and, accordingly tended to die by starvation”. The “pharmacological activity of the isomer (in words)” value in data set [5] is reported as “pharmacologically active”. Besides, the median effective dose (ED50) with rats (oral, 24 hours after administration, read-out: ED50 for protection against stereotypy, peak effect (24 hours)) was 0.04 mg/kg; in the data set on rats (oral, 48 h, read-out: ED50 for protection against stereotypy, 48 h), 0.2 mg/kg; in the data set on rats (oral, 72 h, read-out: ED50 for protection against stereotypy, 72 h), 0.9 mg/kg; in the data set on rats (oral, 96 h, read-out: ED50 for protection against stereotypy, 96 h), 2.3 mg/kg. The “time of peak effect, amphetamine antagonism” value with rats (oral) is 24 h. Besides, the “amphetamine antagonistic effect 4 days after administration (in words)” value with rats (oral, 4 days) is reported as “rather weak”.

Take `OCCN1CCN(CCCC2c3ccc(F)cc3Sc3ccc(Cl)cc32)CC1` (stereo not drawn) [Substance 3, 2-chloro-6-fluoro-9-(3-(4-(2-hydroxyethyl)-1-piperazinyl)propyl)-thiaxanthene]: the “Ratio Cat./Meth (catalepsy/methylphenidate antagonism)” value with male Wistar rats turned out to be 3.4. The ED50 was 2.7 mg/kg in data set [2] (setting [8]), 7.1 mg/kg with NMRI male mice (setting [6]) and 0.8 mg/kg in the data set on NMRI male mice (setting [7]). Moreover, in the data set on NMRI male mice, the “duration of peak effect” value is more than 5 h.

For `OCCC1CCN(CCCC2c3ccc(F)cc3Sc3ccc(C(F)(F)F)cc32)CC1` (stereo not drawn) [Substance 14, 2-Trifluoromethyl-6-fluoro-9-(3-(4-(2-hydroxyethyl)-1-piperidyl)propyl)-thiaxanthene], in the data set on male Wistar rats, the “Ratio Cat./Meth (catalepsy/methylphenidate antagonism)” value worked out at 0.8. For the same compound, the figures for the ED50 (in data set [2] (setting [8]); in the data set on NMRI male mice (setting [6]); in the data set on NMRI male mice (setting [7])) were 0.21 mg/kg, 3.6 mg/kg and 0.25 mg/kg, respectively.

Turning to `OCCN1CCN(CCC=C2c3ccc(F)cc3Sc3ccc(Cl)cc32)CC1` [Substance 7], the “Ratio Cat./Meth (catalepsy/methylphenidate antagonism)” value in the data set on male Wistar rats is recorded as 5. The ED50 in data set [2] (setting [8]) is 2 mg/kg; in the data set with NMRI male mice (setting [6]), more than 10 mg/kg; with NMRI male mice (setting [7]) it was 0.4 mg/kg. In addition, in the data set with NMRI male mice, the “duration of peak effect” value was more than 5 h.
